The source of these data is patent US11078519B2, “Bioluminescent assays utilising secreted luciferases” (GENE STREAM PTY LTD., priority 2006, dated 2021).

In assay [1] the test system is non-secreted Gaussia luciferase. Briefly: Kinetic luminescence assay of non-secreted Gaussia luciferase in HeLa cell lysate with reducing agent in assay buffer. Format: biochemical. As to conditions: for decay in luminescent signal over time compared with absence of reducing agent: all concentrations tested: DTT 4-50 mM, β-mercaptoethanol 10-100 mM, TCEP 500 uM or 5 mM, FIGS. 1A, 1B. The procedure:
HeLa cells stably expressing non-secreted and destabilized Gaussia luciferase were plated onto 96-well plates and incubated overnight. The non-secreted luciferase is a modified Gaussia luciferase in which the 14 amino acid N-terminal signal peptide has been deleted. The destabilised luciferase is an enzyme containing a destabilising element such that it has a shortened half-life and is expressed at lower steady-state level than in the absence of the destabilising element.
Following the overnight incubation, medium was removed and the cells lysed in 20 ul lysis buffer comprising 25 mM Tris pH 8.1, 150 mM NaBr, 1 mM EDTA, 63.4 uM sodium oxalate, 0.1% NP40 substitute, 5% glycerol (GSv3). Luciferase activity was measured in a kinetic assay following injection of 60 ul of an assay buffer comprising 25 mM Tris pH 8.1; 1 mM EDTA, 2 mM Ascorbate and 26 uM Cz (STD), or the same assay buffer but also containing a reducing agent. Various concentrations of three reducing agents were used: DTT (4 mM, 10 mM, 20 mM or 50 mM); β-mercaptoethanol (10 mM, 20 mM, 50 mM, or 100 mM); and TCEP (500 uM or 5 mM). […] The effect was strongest at higher concentrations of a given reducing agent. […] The inventors have determined that this higher concentration produced beneficial effects in terms of bioluminescence generated by Gaussia luciferase. […]

Assay [2] relates to non-secreted Metridia luciferase. Briefly: Kinetic luminescence assay of non-secreted Metridia luciferase in HeLa cell lysate. It counts as biochemical. As to conditions: up to 120 minutes. From the text:
(§1) HeLa cells were transiently transfected with expression plasmids encoding either Gaussia or Metridia luciferases in either their native secreted form or a modified non-secreted form. Secreted Metridia luciferase was obtained from Clontech and non-secreted Metridia luciferase was created in an analogous way to non-secreted Gaussia luciferase. The coding region was obtained by PCR using primers that delete the first 16 amino acids after ATG (the secretion signal) and the stop codon. The PCR product was ligated into a pRR23.1 plasmid (GeneStream, AU) to create a non-secreted but destabilized Metridia luciferase.
One day after transfection conditioned medium was removed for the secreted luciferases and the non-secreted luciferases were lysed as described in Example 1. Aliquots (20 ul) of conditioned medium or lysate were assayed for luciferase activity in kinetic assays following manual injection of assay buffer comprising the indicated concentrations of DTT in 25 mM Tris pH 7.75; 1 mM EDTA; 2 mM Ascorbic acid and 26 uM coelenterazine.
Experiments were performed as described in Example 5 for the non-secreted Gaussia and Metridia luciferases, except that the reducing agents used were: dithioerythritol (DTE) (FIGS. 6A and 6D); sodium sulfite (FIG. 6B); cysteamine (FIGS. 6C and 6E); TCEP (FIG. 6F); and β-mercaptoethanol (FIG. 6G).

In assay [3] the test system is destabilised, non-secreted Gaussia luciferase. As to conditions: 5 mM glutathione (3:2 reduced:oxidized); fresh buffer; FIG. 15. The procedure:
HeLa cells expressing a destabilised, non-secreted Gaussia luciferase were plated in equal aliquots onto 96-well plates and incubated overnight. The same lysis buffer was used for all samples. Luciferase activity was measured using fresh assay buffer containing the total amounts of glutathione (3:2 ratio of reduced:oxidized) indicated in FIG. 15. The assay buffers were then stored at room temperature for 7 hrs or at 4° C. for 22 hrs and used again to measure replicate samples.

Assay [4] shares this test system. As to conditions: fresh assay buffer with glutathione; FIG. 14.
Procedure: HeLa cells expressing a destabilised, non-secreted Gaussia luciferase were plated in equal aliquots onto 96-well plates and incubated overnight. The same lysis buffer was used for all samples. […] The assay buffers were then stored at room temperature for 4 hrs and used again to measure replicate samples.
Assay [5] has as its system wild-type secreted Gaussia luciferase. Nature of the assay: Kinetic luminescence assay of secreted Gaussia luciferase in conditioned medium. It counts as biochemical. The procedure:
Similar experiments were performed as described in Example 1 with the exception that the effect of DTT on the time course of luminescence was also investigated for the wild-type secreted Gaussia luciferase. This was achieved by transiently transfecting HeLa cells with a reporter plasmid encoding the wild-type Gaussia luciferase protein and harvesting the conditioned medium 24 hrs later. The assay buffer (with either 50 mM DTT or no DTT) was injected into wells containing 20 ul of the conditioned medium. Results were expressed as the % signal remaining compared to time zero (see FIG. 3).
as §1
One day after transfection conditioned medium was removed for the secreted luciferases and the non-secreted luciferases were lysed as described in Example 1. […]

Assay [6] has as its target T1, intracellular Renilla luciferase (Renilla reniformis, UniProt P27652).
T1 construct: expressed in transfected cells; host or cells: HeLa, transient; cell lysate
T1 sequence (P27652 1-311): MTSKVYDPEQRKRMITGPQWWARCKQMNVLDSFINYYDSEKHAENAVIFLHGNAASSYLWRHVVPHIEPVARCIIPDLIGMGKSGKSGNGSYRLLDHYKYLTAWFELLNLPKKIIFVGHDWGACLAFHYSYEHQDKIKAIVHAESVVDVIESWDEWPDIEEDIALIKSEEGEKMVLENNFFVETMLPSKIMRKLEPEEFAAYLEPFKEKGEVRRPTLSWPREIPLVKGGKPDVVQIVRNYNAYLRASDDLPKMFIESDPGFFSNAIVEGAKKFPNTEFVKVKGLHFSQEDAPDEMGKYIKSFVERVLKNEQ
Briefly: Kinetic luminescence assay of Renilla luciferase in HeLa cell lysate. Format: biochemical. As to conditions: 50 mM DTT in assay buffer; FIG. 4. The procedure: Similar experiment to those described in Example 1 were performed, with the exception that the HeLa cells transiently expressed the intracellular Renilla luciferase. A kinetic assay was performed after injection of assay buffer (with 50 mM DTT or no DTT) into wells containing 20 ul of lysate.

Assay [7] relates to secreted Metridia luciferase. Nature of the assay: Kinetic luminescence assay of secreted Metridia luciferase in conditioned medium. The conditions noted are these: varying DTT in assay buffer; up to 120 minutes; FIG. 5D. Format: biochemical.
From the text: as §1, with “Metridia luciferase. One day after transfection conditioned medium was removed for the secreted luciferases and the non-secreted luciferases were lysed as described in Example 1. Aliquots (20 ul) of conditioned medium or lysate were assayed for luciferase activity in kinetic assays following manual injection of assay buffer comprising the indicated concentrations of DTT in 25 mM Tris pH 7.75; 1 mM EDTA; 2 mM Ascorbic acid and 26 uM coelenterazine.” for “Metridia luciferase.”

The subject of assay [8] is non-secreted and destabilized Gaussia luciferase. Briefly: Dual-luciferase assay (Gaussia then firefly) in HeLa cell lysate. Format: biochemical. As to conditions: Gaussia assay buffer with 50 mM DTT; FIG. 8. The procedure:
HeLa cells stably expressing both a non-secreted and destabilized Gaussia luciferase and a destabilized firefly luciferase were plated onto 96-well plates and incubated overnight. Medium was removed and the cells lysed in 20 ul of the lysis buffer described in Example 1. Light emission was measured for 1 sec in a luminometer at the following times: immediately before addition of assay buffer (LB=background signal in absence of substrate); immediately after addition of Gaussia assay buffer (Ga) comprising 25 mM Tris pH 8.1; 1 mM EDTA, 2 mM Ascorbate, 23.6 uM Cz and 50 mM DTT; 15 mins after addition of Ga assay buffer (15 mins); and subsequently at 1 sec after addition of 60 ul of a firefly assay buffer (FF) comprising 25 mM Tris pH 7.35, 6 mM MgSO4, 36 mM DTT, 0.11 mM EDTA, 0.58 mM ATP, 0.3 mM CoA, 0.52 mM Luciferin, 1 mg/ml BSA. The results shown in FIG. 8 illustrate a strong Gaussia luciferase bioluminescent signal that can be measured in a flash reaction but which decays to background levels within approximately 15 mins without intervention or the need to add quenching reagents. Subsequent addition of a firefly reagent allows measurement of the firefly signal, thus completing a dual-luciferase assay.

In assay [9] the test system is secreted Gaussia luciferase. Briefly: Secreted Gaussia luciferase signal in cell lysate, lysis buffer with DTT. It counts as biochemical. The conditions noted are these: 50 mM DTT in lysis buffer; 2 hour time-point, without doxycycline; FIG. 11B. How it is done:
To test this hypothesis, HeLa cells were co-transfected with plasmids TRE-Rn and CMV-Ga (wild type, secreted), either alone or in combination. The latter provides constitutive expression of secreted Gaussia luciferase, whilst the former provides a doxycycline-repressible expression of intracellular Renilla luciferase. The cells were incubated overnight, the medium was removed and the cells rinsed once before addition of a fresh aliquot of medium either with or without 2 ug/ml doxycyline. At 2, 6 and 24 hrs later, samples of conditioned medium were taken. The cells were rinsed in fresh medium before being lysed using lysis buffer comprising 25 mM Tris pH 8.1, 150 mM NaBr, 1 mM EDTA, 63.4 uM sodium oxalate, 0.1% NP40 substitute, 5% glycerol; either with or without 50 mM DTT. 20 ul aliquots of conditioned medium and cell lysate were then assayed for luciferase activity following addition of 60 ul of assay buffer comprising 25 mM Tris pH 7.75; 1 mM EDTA; 2 mM Ascorbic acid and 26 uM coelenterazine.

Assay [10] is described as follows: Background luminescent signal in lysate of non-transfected HeLa cells. The conditions noted are these: DTT in assay buffer. How it is done:
(§2) Non-transfected HeLa cells and HeLa cells expressing non-secreted Gaussia luciferase were subjected to luciferase assays as follows. Cells were plated in equal aliquots onto a 96-well plate and incubated overnight. Medium was removed and cells lysed in 20 ul of the lysis buffer described in Example 1. Forty minutes later, light emission was measured using a Wallac Victor 3 luminometer (Perkin Elmer) immediately before and after injection of 60 ul of assay buffer comprised 25 mM Tris pH 8.1, 23.6 uM coelenterazine, 1 mM EDTA, 2 mM ascorbate plus the indicated concentration of DTT (see FIG. 8).

For assay [11], the system named is non-secreted Gaussia luciferase. Briefly: Flash intensity of non-secreted Gaussia luciferase in HeLa cell lysate. Format: biochemical. As to conditions: 50 mM DTT in assay buffer; FIG. 12C. How it is done: as §2
[12] abbreviates: varying concentrations of reducing agent, up to 50 minutes, FIGS. 6D-6G.
Where [13] appears, read: varying concentrations of reducing agent, FIGS. 6A-6C.

With `O=C(O)CCP(CCC(=O)O)CCC(=O)O` [TCEP, tris(2-carboxyethyl)phosphine], in assay [1], the “decay in luminescent signal over time compared with absence of reducing agent” value (“decay in luminescent signal … of reducing agent” below) is listed as “more rapid decay in luminescent signal”. Also, in assay [1] (setting [12]), the “light emission over time” value was “rapid decline in light emission”.
Regarding `O=S([O-])[O-].[Na+].[Na+]` [sodium sulfite], the “light emission over time” value in assay [2] (setting [13]) is “rapid decline in light emission”.
On to `NCCS` [cysteamine], for which the “light emission over time” value in [1] (setting [12]) and in assay [2] (setting [13]) was “rapid decline in light emission” in each case.
Consider `N[C@@H](CCC(=O)N[C@@H](CS)C(=O)NCC(=O)O)C(=O)O` [glutathione], for which the “initial activity of assay buffer” value in assay [3] was “initial activity was reduced”. Also, the “baseline activity of the fresh buffers” value in assay [4] is listed as “reduces the assay buffer activity”.
`O[C@H](CS)[C@H](O)CS` [DTT, dithiothreitol]: the “light emission over time (% signal remaining compared to time zero)” value is given as “very rapid decline in light emission” in assay [1] (50 mM DTT in assay buffer, modified non-secreted form, FIG. 3) and “very rapid decline in light emission” in assay [5] (50 mM DTT in assay buffer, native secreted form, conditioned medium, FIG. 3). In addition, the “time for signal to drop to approximately background levels (~100 RLU)” value in assay [1] (DTT 50 mM to 500 mM, all concentrations, FIG. 2B) is at most 10 min. For the same molecule, in [1] (DTT 50 mM to 500 mM, FIG. 2A), the “rate of decay in luminescent signal versus concentration” value is given as “directly related to the concentration of DTT”. Besides, the “light emission after addition during glow phase (% of light units at time zero)” value in assay [1] (DTT added 40 minutes after initiation of reaction, FIG. 7) is “rapid decline in light emission”. The “light emission during the first few seconds after injection of the reducing agent” value in assay [1] (DTT added during glow phase, FIG. 7) was “lack of any significant decay in light emission”. Besides, the “decay in luminescent signal … of reducing agent” value in assay [1] is on record as “more rapid decay in luminescent signal”. In assay [1] (up to 50 mM DTT), the initial signal intensity entry is recorded as “does not cause any reduction in initial signal intensity”. The “light emission over time” value in [1] (varying DTT in assay buffer, up to 120 minutes, FIG. 5A) is on record as “very rapid decline in light emission”; in [5] (varying DTT in assay buffer, up to 120 minutes, FIG. 5B), “very rapid decline in light emission”; in [2] (varying DTT in assay buffer, FIG. 5C), “very rapid decline in light emission”; in assay [7] it was “very rapid decline in light emission”. In [6], the “kinetics of light emission” value is on record as “prolongs the light emission”. Moreover, the “time for Gaussia luciferase signal to decay to background levels” value in assay [8] is at most 15 min. The “signal in the lysate of cells expressing only Gaussia luciferase” value in assay [9] was “no signal was detected”. In addition, in [10] (after subtraction of the pre-read, FIG. 12B), the “reduction in the background signal generated by the assay buffer” value was “more than 80%”. In addition, the “reduction in the overall background signal” value in assay [10] (raw RLU after injection, FIG. 12A) is given as “more than 50%”. In [11], the “true luciferase signal in flash reactions” value is recorded as “does not reduce the true luciferase signal”.
Turning to `OCCS` [β-mercaptoethanol], in [1], the “decay in luminescent signal … of reducing agent” value is on record as “more rapid decay in luminescent signal”. Besides, the “light emission over time” value in assay [1] (setting [12]) was “rapid decline in light emission”.
In the case of `O[C@H](CS)[C@@H](O)CS` [DTE, dithioerythritol], the “light emission over time” value in assay [1] (setting [12]) and in assay [2] (setting [13]) was “rapid decline in light emission” each time.
